According to US20260315763A1, “OLFACTORY DELIVERY OF THERAPEUTIC PEPTIDES” (Rocket Science Health Corp., priority 2023, published 2026):
Entries after “also recorded” stand apart in the source; their conditions may differ.

Key:
[1] = Visualizing olfactory cleft delivery with methylene blue (nasal endoscopy); type: in vivo, human (healthy participants)
From the text: The primary goal of these studies is to visualize delivery to the olfactory cleft (first with technetium-99, and then with methylene blue). The device was tuned to eject the fluid at a specific velocity. This velocity was chosen based on the viscosity of the fluid and the studies in Example 1, to maximize the extent of laminar flow.
Visualizing Olfactory Cleft Delivery with Methylene Blue
Participants: Five healthy participants (ages 19+) with no history of sinonasal symptoms and no evidence of nasal inflammation were recruited for this study. Prior to recruitment of participants study procedures were approved by Providence Health Care research ethics board, (British Columbia, Canada) and conducted under Health Canada Investigational Testing Authorization #314993. All participants were assessed by a licensed otolaryngologist physician to confirm their eligibility. Participants completed two study visits during which a licensed otolaryngologist physician administered 0.1 mL of the visual dye tracer, methylene blue.
Study Design: During the first visit, the methylene blue was administered using the Laminar Fluid Ejection method (1.5 mm cannula; velocity=4.5 m/s). During the second visit, methylene blue was administered using a conventional nasal spray device (Pharma systems Item #10272, UPC: 063636802714). The Pharma systems spray device was used in these experiments because it was the device normally used by the compounding pharmacy for intranasal delivery. It was the device patients and clinicians were used to at this clinic.
Following delivery, the physician used a nasal endoscope to image the deposition of methylene blue to the olfactory cleft at up to five time points (1, 5, 8, 12, and 15 minutes following delivery). From each image, the physician judged whether at least 50% of the methylene blue fluid was delivered to the olfactory cleft. If <50% of the methylene blue was judged to have deposited in the olfactory cleft, imaging was stopped and that session's trial was completed.

[2] = tested on: anterior division of the cingulate gyrus; assay: fMRI region of interest analysis: mean ALFF in anterior division of the cingulate gyrus; type: in vivo, human (participants); conditions: both olfactory delivery and spray conditions; 80 IU; baseline, 15, 60 min
From the text: (§1) Participants: Eight participants (male and female, ages 23-30) were recruited for this study from the New Brunswick area. Participants reported no history of abnormal nasal or sinus symptoms, insulin use, diabetes, metabolic disorder, or any complicating medical conditions, or contraindications for nasal cannulation, MRI or venous blood sampling. Additionally, participants reported no previous diagnosis of SARS-COV-2 with symptoms of anosmia. Study procedures were approved by Horizon Health Network's Human Research Protection Program prior to recruitment of participants.
(§2) Study Design: An open-label 4-arm crossover study design was used to understand the insulin brain effects between the focal deposition (cannula) and the standard nasal mister method. Undiluted solution of 80 IU (0.16 ml) prepared from U500 insulin was delivered to the olfactory region (condition A). Under this condition, 40 IU (0.08 ml) of human insulin was delivered directly by an ENT physician to each nostril. For condition B, undiluted solution containing 15% MucoLox (a thickening agent) and 80 IU (0.16 ml) insulin was delivered to the olfactory region. For condition C, a total of 1.6 ml insulin and sterile water mixture was prepared for Nasal spray delivery. The nasal spray bottle contained 80 IU of U500 insulin mixed with a sterile water solution. […]

[3] = tested on: inferior temporal gyrus; assay: fMRI region of interest analysis: mean ALFF in inferior temporal gyrus; type: in vivo, human (participants); conditions: both olfactory delivery and spray conditions; 80 IU; baseline, 15, 60 min
From the text: as §1, §2

[4] = tested on: prefrontal and posterior brain regions; assay: fMRI control analysis: ALFF in spray condition across Blocks 1 and 2; type: in vivo, human (participants); conditions: insulin without MucoLox, 80 IU
From the text: as §1, §2

[5] = tested on: prefrontal brain activity; assay: Insulin delivery fMRI analysis: ALFF, prefrontal brain activity; type: in vivo, human (participants)
From the text: In the in-human studies below, the device was tuned to eject the fluid at a specific velocity. This velocity was chosen based on the viscosity of the fluid and the studies described in Example 1, to maximize the extent of laminar flow.
as §1
Study Design: An open-label 4-arm crossover study design was used to understand the insulin brain effects between the focal deposition (cannula) and the standard nasal mister method. Undiluted solution of 80 IU (0.16 ml) prepared from U500 insulin was delivered to the olfactory region (condition A). Under this condition, 40 IU (0.08 ml) of human insulin was delivered directly by an ENT physician to each nostril. For condition B, undiluted solution containing 15% MucoLox (a thickening agent) and 80 IU (0.16 ml) insulin was delivered to the olfactory region. For condition C, a total of 1.6 ml insulin and sterile water mixture was prepared for Nasal spray delivery. The nasal spray bottle contained 80 IU of U500 insulin mixed with a sterile water solution. The spray was delivered over 4 minutes with two puffs per nostril every minute. Condition sequences AC, CA, BC, and CB comprise the 4 arms of the study.
Participants were randomly assigned to one of two blocks. In Block 1, participants were randomly assigned by alternating sequence to one of the A arms (AC or CA). […] In Block 2, participants were randomly assigned by alternating sequence to one of the B arms (BC or CB). Block 2 participants did receive MucoLox in the cannula session. For a given participant, appointments for each condition were scheduled at a minimum of 14 days apart to ensure no carry-over effects from the previous condition.
MRI Acquisition: Magnetic resonance imaging was completed at an imaging clinic in Moncton (Moncton MRI) using standard sequences on a 3T Siemens Skyra, VD13. Anatomical T1-weighted MPRAGE images were acquired for each subject [TR=1900 ms, TE=2.99 ms, Flip Angle=9 degrees, Voxel Size=0.45×0.45×0.9 mm, Dimensions=448×512×160]. Resting state functional T2*-weighted BOLD images [TR=2600 ms, TE=30 ms, Flip Angle=90 degrees, Voxel Size=3×3×3 mm, Dimensions=80×80×45] were acquired for each subject at baseline and again 15 minutes and 60 minutes following intranasal delivery of insulin. Each resting state functional scan consisted of 180 volumes acquired over the course of 7 minutes and 48 seconds.
MRI Preprocessing: MRI data was preprocessed using fMRIPrep. Preprocessing steps of the anatomical images included correction for intensity nonuniformity, skull stripping, segmentation of gray matter, white matter, and cerebrospinal fluid (CSF) masks, and normalization to MNI template space. Preprocessing steps for the functional images included slice time correction, head motion correction (calculation of framewise displacement and 6-degrees of motion parameters and their temporal derivatives), registration to the subjects T1w image, normalization to MNI template space, and spatial smoothing (3 mm FWHM Gaussian kernel).
fMRI Denoising: Functional MRI data were denoised using a standard denoising pipeline implemented in the CONN Toolbox (v 22.a) and SPM (v 12.7). […]

CN(C)c1ccc2nc3ccc(=[N+](C)C)cc-3sc2c1 [Methylene Blue, methylene blue]
participants with successful delivery of >50% of the methylene blue to the olfactory cleft ([1]; Laminar Fluid Ejection method, 0.1 mL): Four of the five participants
delivery of at least 50% of the dye to the olfactory cleft ([1]; conventional nasal spray, each of the five participants): failed to deliver at least 50% of the dye to the olfactory cleft
Olfactory Residence Time ([1]; participant 2.01, LFE Method, 0.1 mL, 1 attempt): 15 min
Olfactory Residence Time ([1]; participant 2.01, Nasal Spray, 0.1 mL, 1 attempt): 0 min
Olfactory Residence Time ([1]; participant 2.02, LFE Method, 0.1 mL, 2 attempts): 8 min
Olfactory Residence Time ([1]; participant 2.02, Nasal Spray, 0.1 mL, 1 attempt): 0 min
Olfactory Residence Time ([1]; participant 2.03, LFE Method, 0.1 mL, 1 attempt): 5 min
Olfactory Residence Time ([1]; participant 2.03, Nasal Spray, 0.1 mL, 1 attempt): 0 min
Olfactory Residence Time ([1]; participant 2.04, LFE Method, 0.1 mL, 5 attempts): 0 min
Olfactory Residence Time ([1]; participant 2.04, Nasal Spray, 0.1 mL, 1 attempt): 0 min
Olfactory Residence Time ([1]; participant 2.05, LFE Method, 0.1 mL, 1 attempt): 1 min
Olfactory Residence Time ([1]; participant 2.05, Nasal Spray, 0.1 mL, 1 attempt): 0 min

insulin: Undiluted solution of 80 IU (0.16 ml) prepared from U500 insulin; spray: 80 IU of U500 insulin mixed with a sterile water solution
ALFF over time, anterior division of the cingulate gyrus [2]: decreased over time; also recorded: decrease in ALFF in both the olfactory delivery and spray conditions
ALFF over time, inferior temporal gyrus [3]: increased over time; also recorded: increase in ALFF for both conditions
brain activity, Block 2 compared to Block 1 participants ([4]; 15 minutes): increased brain activity in prefrontal cortex and reduced brain activity in posterior brain regions
brain activity, Block 2 compared to Block 1 participants ([4]; 60 minutes): decreased brain activity in select prefrontal and posterior regions
prefrontal brain activity compared to baseline ([5]; 80 IU intranasal insulin, scans after receiving insulin (15 and 60 minutes)): decreased prefrontal brain activity compared to baseline scans
decrease in prefrontal brain activity, olfactory delivery device compared to spray mister ([5]; 80 IU, olfactory delivery device vs traditional spray mister): larger and longer-lasting decrease in prefrontal brain activity
prefrontal deactivation, olfactory delivery device compared to spray device ([5]; Block 1 (insulin without MucoLox), 80 IU): greater and more sustained
reduction in prefrontal brain activity, olfactory delivery compared to spray ([5]; Block 1, 80 IU, 60 minutes): even more intense in the olfactory delivery condition
change in prefrontal brain activity compared to baseline ([5]; Block 1, both spray and olfactory delivery device, 80 IU, 15 minutes): reduction in brain activity in prefrontal regions
change in prefrontal brain activity compared to baseline ([5]; Block 1, olfactory delivery device, 80 IU, 15 minutes, compared to insulin with MucoLox (Block 2)): this reduction is greater in the absence of MucoLox
change in prefrontal brain activity compared to baseline ([5]; Block 2, spray mister, 80 IU, 15 minutes): small decrease of prefrontal brain activity
change in prefrontal brain activity compared to baseline ([5]; Block 2, spray mister, 80 IU, 60 minutes): remained deactivated
reduction in prefrontal brain activity, spray condition compared to olfactory delivery with MucoLox ([5]; Block 2, spray, 80 IU, 60 minutes): more intense in the spray condition
duration of reduction of brain activity after delivery ([5]; delivery of insulin using the method disclosed (olfactory delivery)): at least 60 minutes
deactivation of the prefrontal cortex, olfactory delivery device compared to spray mister ([5]; intranasal delivery of insulin, 80 IU, overall conclusion): deactivation of the prefrontal cortex to a greater degree
deactivation of prefrontal cortex, insulin alone compared to insulin with MucoLox ([5]; olfactory delivery device, 80 IU): greater, longer lasting deactivation of prefrontal cortex
reduction in prefrontal brain activity, Block 1 compared to Block 2 (MucoLox) ([5]; olfactory delivery device, 80 IU, 60 minutes): more intense in Block 1 participants who did not receive MucoLox
